Format in all cases: in vivo, BALB/c mice
In data set [1] the test system is anti-OVA-specific IgE antibody. Description: Allergy inducing activity test: anti-OVA-specific IgE antibody in serum of OVA-immunized mice (DS mouse IgE ELISA (OVA) kit). As for the experimental part:
(§1) 8-Week-old female BALB/c mice were divided into groups (N=6), and each group was primarily immunized by dorsal-subcutaneous administration of (1) ovalbumin (OVA) (5 μg) dissolved in saline as an antigen (OVA single administration group), (2) OVA 5 μg and Addavax™ (mixed with saline at 1:1) dissolved in saline (Addavax™ administration group) as positive control adjuvant, (3) OVA 5 μg and SZ137 0.256 μmol dissolved or dispersed in 5% α-cyclodextrin (hereinafter to be simply referred to as αCD)-added saline (SZ137 administration group), (4) OVA (5 μg) and SZ138 (0.256 μmol) dissolved or dispersed in 5% αCD-added saline (SZ138 administration group), (5) OVA (5 μg) and SZ142 (0.256 μmol) dissolved or dispersed in 5% αCD-added saline (SZ142 administration group), (6) OVA (5 μg) and SZ144 (0.256 μmol) dissolved or dispersed in 5% αCD-added saline (SZ144 administration group), (7) OVA (5 μg) and SZ145 (0.256 μmol) dissolved or dispersed in 5% αCD-added saline (SZ145 administration group), (8) OVA (5 μg) and SZ146 (0.256 μmol) dissolved or dispersed in 5% αCD-added saline (SZ146 administration group), (9) OVA (5 μg) and SZ147 (0.256 μmol) dissolved or dispersed in 5% αCD-added saline (SZ147 administration group), (10) OVA (5 μg) and SZ148 (0.256 μmol) dissolved or dispersed in 5% αCD-added saline (SZ148 administration group), each per mouse. Two week later, the secondary immunization was carried out by dorsal-subcutaneous administration of solutions or dispersions similar to those of the above-mentioned (1)-(10) again. Two weeks from the secondary immunization, the whole blood was extracted under anesthesia, and the obtained serum sample was measured for anti-OVA-specific IgG1 subclass antibody, anti-OVA-specific IgG2a subclass antibody, and anti-OVA-specific IgE antibody.
The measurement method of the anti-OVA-specific IgE antibody in Experimental Example 1 and the following Experimental Examples 2-5, 8-10 is as follows.
DS mouse IgE ELISA (OVA) kit manufactured by DS Pharma Biomedical Co., Ltd. was used. The protocol is briefly shown below.
The serum sample and a standard reagent for drawing an analytical curve are diluted with a buffer and, after stirring, left standing at room temperature for 10 min. The sample and the standard solution are added to a plate bound with an IgE capture antibody in advance and, after stirring, the mixture is left standing at room temperature for 60 min. The mixture is washed three times with wash, HRP-labeled OVA is added, and the mixture is left standing at room temperature for 30 min. The mixture is washed three times with wash, a substrate solution is added, and the mixture is left standing in dark at room temperature for 30 min. A reaction quenching liquid is added, the mixture is stirred, and the absorbance (OD Value=450 nm) is immediately measured.
The standard used is one attached to the kit, the standard curve is drawn from the measured OD Value, and the concentration is calculated. […]
A general note: ELISA stands for enzyme-linked immunosorbent assay.

The subject of data set [2] is anti-OVA-specific IgG2a subclass antibody. Description: Adjuvant activity test: anti-OVA-specific IgG2a subclass antibody in serum of OVA-immunized mice (ELISA). Particulars: after secondary immunization, serum 2 weeks later; OVA 5 μg + compound 0.256 μmol in 5% αCD-added saline (Addavax mixed with saline at 1:1), dorsal-subcutaneous; compared to OVA single administration group. As for the experimental part:
as §1
(§2) The measurement method of the anti-OVA-specific IgG1 subclass antibody and anti-OVA-specific IgG2a subclass antibody in Experimental Example 1 and the following Experimental Examples 2-10 is as follows.
(§3) To a 96 well plate was added 5 μg/ml OVA at 100 µl/well, and the mixture was incubated at 4° C. overnight. After incubation, the mixture was washed three times with 200 μl of PBS-T (PBS (phosphate buffered saline)+0.05% (v/v) Tween 20) per well, and blocked with 100 μl of 5% FCS (fetal calf serum)/PBS solution per well at room temperature for 1-2 hr. Thereafter, the mixture was washed three times with PBS-T (200 μl/well), a diluted serum sample (100 l/well) or the same amount of 5% FCS/PBS solution as a control was added, and the mixture was incubated at 37° C. for 1 hr. To calculate concentration of the antibody, the standard of an anti-OVA-specific IgG1 subclass antibody diluted with 2% FCS/PBS solution was added at 100 ng/ml, 50 ng/ml, 25 ng/ml, 12.5 ng/ml, 6.25 ng/ml, 3.125 ng/ml, 1.56 ng/ml, 0.781 ng/ml, 0.391 ng/ml, 0.195 ng/ml, 0.098 ng/ml, 0 ng/ml, per 1 well. When an anti-OVA-specific IgG2a subclass antibody was measured, the standard of an anti-OVA-specific IgG2a subclass antibody was added at 50 ng/ml, 25 ng/ml, 12.5 ng/ml, 6.25 ng/ml, 3.125 ng/ml, 1.56 ng/ml, 0.781 ng/ml, 0.391 ng/ml, 0.195 ng/ml, 0.098 ng/ml, 0.049 ng/ml, 0 ng/ml, per 1 well. Thereafter, similar to the samples, the mixture was washed five times with PBS-T (200 μl/well), a diluted biotinylated anti-mouse IgG1 antibody and IgG2a antibody were added (100 μl/well), and the mixture was incubated at 37° C. for 45 min. Thereafter, the mixture was washed five times with PBS-T (200 μl/well), a diluted anti-biotin-HRP antibody was added (100 μl/well), and the mixture was incubated at 37° C. for another 30 min. Thereafter, the mixture was washed five times with PBS-T (200 μl/well), TMB substrate solution was added (100 μl/well), and the mixture was incubated at room temperature for 10-15 min. Thereafter, a reaction quenching liquid (2N sulfuric acid solution) was added (50 l/well) to discontinue a color developing reaction, and the absorbance (OD Value=450 nm) was measured by a microplate reader. […]

Data set [3] concerns anti-OVA-specific IgG1 subclass antibody. Briefly: Adjuvant activity test: anti-OVA-specific IgG1 subclass antibody in serum of OVA-immunized mice (ELISA). Particulars: after secondary immunization, serum 2 weeks later; OVA 5 μg + compound 0.256 μmol in 5% αCD-added saline (Addavax mixed with saline at 1:1), dorsal-subcutaneous; compared to OVA single administration group. As for the experimental part: as §1, §2, §3

With `CCCCCCCCCCCCCCCCCC(=O)N[C@@H](CCCNC(=N)N)C(=O)NCCCCCCCCCCCC.Cl` [SZ137, N-[(1S)-1-(dodecylcarbamoyl)-4-guanidino-butyl]octadecanamide hydrochloride], in data set [1] (after secondary immunization, OVA 5 μg + compound 0.256 μmol in 5% αCD-added saline (Addavax mixed with saline at 1:1), dorsal-subcutaneous, compared to OVA single administration group), the “anti-OVA-specific IgE antibody production” value is recorded as “an increase in the anti-OVA-specific IgE antibody production was not observed”. For the same compound, the “allergy inducing activity as compared to Addavax” value in data set [1] (conclusion from IgE after secondary immunization, compound in 5% αCD-added saline) is on record as “may have a lower allergy inducing activity”. Besides, the “anti-OVA-specific IgG2a subclass antibody production” value in data set [2] is listed as “significantly increased”. In data set [3], the “anti-OVA-specific IgG1 subclass antibody production” value was “significantly increased”.

Source of the values: US20180311342A1, “IMMUNOSTIMULATING AGENT” (AJINOMOTO CO., INC., priority 2017, published 2018).
